The text below walks through data of paper PMC8632254 (Frontiers in Pharmacology, 2021).

pIC50: −log10 of the molar value.

In data set [1] the test system is SFTSV. As to the kind of experiment: microbe, parasite or virus in culture. Type of data set: cell-based, Severe fever with thrombocytopenia syndrome virus. The conditions noted are these: for pIC50: Severe fever with thrombocytopenia syndrome virus, HUVEC.
In data set [2] the test system is SFTSV. It is filed as cell-based, Severe fever with thrombocytopenia syndrome virus.
Data set [3] has as its system SFTSV. The data set is described as follows: microbe, parasite or virus in culture. Type of data set: cell-based. The conditions noted are these: Severe fever with thrombocytopenia syndrome virus, Vero.
Data set [4] is described as follows: in vitro. The conditions noted are these: African green monkey.
Data set [5] is described as follows: in vitro. The conditions noted are these: human.
Data set [6] concerns Rift Valley fever virus (RVFV). Type of data set: cell-based.
Data set [7] concerns SFTSV. The arrangement: species or system C57BL/6 mice. The conditions noted are these: mouse, in vivo, ip, 4 mg/kg/day.
The test system of data set [8] is SFTSV. It is filed as cell-based, Severe fever with thrombocytopenia syndrome virus. The source holds these as a separate data set.
The subject of data set [9] is SFTSV. Type of data set: cell-based, Severe fever with thrombocytopenia syndrome virus. This is another data set of the same source.
The subject of data set [10] is SFTSV. Type of data set: cell-based, Severe fever with thrombocytopenia syndrome virus. This is another data set of the same source.
The test system of data set [11] is Rift Valley fever virus (RVFV). The data set is described as follows: microbe, parasite or virus in culture. It is filed as cell-based. The conditions noted are these: HUVEC.
Data set [12] concerns SARS-CoV-2. As to the kind of experiment: microbe, parasite or virus in culture. Type of data set: cell-based. The conditions noted are these: Severe acute respiratory syndrome coronavirus 2, Vero C1008.
The test system of the next data set is SFTSV mini-genome. Type of data set: cell-based, Severe fever with thrombocytopenia syndrome virus.
Data set [13] has as its system SARS-CoV-2. Type of data set: cell-based.
For another data set, the system named is HUVEC cells. The conditions noted are these: human.
The test system of data set [14] is SFTSV. Type of data set: cell-based, Severe fever with thrombocytopenia syndrome virus. The source holds these as a separate data set.
In data set [15] the test system is SFTSV. It is filed as cell-based, Severe fever with thrombocytopenia syndrome virus. This is another data set of the same source.
The subject of data set [16] is SFTSV. The conditions noted are these: mouse, in vivo, ip, 1 mg/kg/day.

Broadly, the pIC50 is the negative decadic logarithm of the IC50, by convention in mol/L. As to `O=C1OC[C@H]2OC(O)[C@H](O)[C@@H](O)[C@@H]2OC(=O)c2cc(O)c(O)c(O)c2-c2c(O)c(O)c3oc(=O)c4c(c(O)c(O)c5oc(=O)c2c3c54)-c2c1cc(O)c(O)c2O` (mixture of isomers) [Punicalin, punicalin], the SI in the data set with SFTSV [1] is listed as above 100. Also, the values for the pIC50 with SFTSV [1] and in the data set on SFTSV [3] were 5.60 and 5.42, respectively. Also, the “virucidal effect on SFTSV virions” value with SFTSV [2] was “directly inactivated virions in a dose dependent manner”. Further, the CC50 in the data set “in vitro [4]” is above 125 µM; in the data set “in vitro [5]” it was above 250 µM.

Consider `CC(C)=CCCC(C)(O)C1CCC2(C)C1C(O)CC1C3(C)CCC(OC4OC(CO)C(O)C(O)C4OC4OC(CO)C(O)C(O)C4OC4OCC(O)C(O)C4O)C(C)(C)C3CCC12C` (stereo not shown) [Notoginsenoside Ft1, notoginsenoside Ft1], for which the pIC50 in the data set with SFTSV [1] was 4.96; with SFTSV [3] it was 5.46. For the same compound, the CC50 in “in vitro [4]” was above 250 µM; in the data set “in vitro [5]”, around 62.5 µM.

What is called inhibition is the percentage by which the read-out fell short of the control. On to `CC(=O)O[C@@H]1C[C@H](O)[C@@]23CO[C@@H](O)[C@]1(C)[C@@H]2C[C@@H](O)[C@]1(C)[C@@H]3C(=O)[C@H](OC(C)=O)[C@@]2(C)[C@H](c3ccoc3)C[C@H]3O[C@]321` [Toosendanin, toosendanin], for which, in data set [6], the “time-of-addition result, RVFV” value is “inhibited the entry step of RVFV”. In the data set on SFTSV [7], the “antigen of SFTSV nucleoprotein in spleen sections” value is listed as “reduced the antigen of SFTSV nucleoprotein in the spleen sections” and the “viral load in the serum” value is “significantly lower than that of the mice in the vehicle control group”. In addition, in the data set with SFTSV [8], the Number of particles worked out at 20 and the “amount of internalized viral particles (microscopy)” value is “significantly reduced the amount of internalized viral particles”. Further, in the data set with SFTSV [9], the “vRNA and viral protein expression, time of addition” value is given as “decreased significantly when toosendanin was added prior to but not post SFTSV infection”. In the data set with SFTSV [1], the pIC50 was 7.28. The “virucidal effect on SFTSV virions” value with SFTSV [2] was “no virucidal effect”. In addition, in the data set with SFTSV [10], the “SFTSV binding (vRNA level of bound virions)” value is given as “did not inhibit SFTSV binding”. For the same compound, the pIC50 in the data set on SFTSV [3] is 5.92. In addition, in data set [11], the pIC50 was 6.89, the inhibition at 0.6 µM came to 72.6%, 1.8 µM produced 82% inhibition and 5.6 µM produced 95.5% inhibition. In data set [11], this compound registered an inhibition at 16.7 µM of 93.6% and an inhibition at 50 µM of 95.1%. In the data set with SARS-CoV-2 [12], the negative-log IC50 (pIC50) is 6.62, at 0.21 µM the inhibition was 42%, the inhibition at 0.62 µM amounted to 84.6% and the inhibition at 1.85 µM was found to be 92.4%. In the data set on SARS-CoV-2 [12], this compound displayed an inhibition at 5.6 µM of 99%, an inhibition at 16.7 µM of 99.5% and an inhibition at 50 µM of 99.9%. Moreover, the “viral RNA replication and transcription (mini-genome)” value with SFTSV mini-genome was “did not affect the viral RNA replication and transcription”. Also, the “time-of-addition result, SARS-CoV-2” value in the data set on SARS-CoV-2 [13] was “revealed inhibitory effect when added 1 h post infection”. Also, in the data set with HUVEC cells, the CC50 is above 450 µM. For the same compound, the “syncytium formation (viral fusion)” value with SFTSV [14] is on record as “No significant difference of syncytium formation”. In the data set on SFTSV [15], the “accumulation of vRNA (internalization), concentration series” value is on record as “dose dependent inhibition effect on accumulation of vRNA” and the “relative intracellular vRNA (internalization)” value is “significantly reduced”. In addition, in the data set on SFTSV [16], the “megakaryocytes accumulation in spleens (H&E)” value is on record as “reduced the megakaryocytes accumulation”, the “viral antigen in spleen sections (immunohistochemistry)” value is listed as “less viral protein positive cells was detected” and the weight loss entry is on record as “did not lead to weight loss”. The CC50 in the data set “in vitro [5]” was above 250 µM.
